# Experiments:
# [1] = test system: human KRAS^G12C NSCLC NCI-H2122 xenograft tumors; experiment: NCI-H2122 xenograft, Compound A plus RMC-6291 combination; type: in vivo; conditions: immune-deficient mice; repeated daily oral administration
# Method: The antitumor activity of Compound A in combination with RMC-6291 was evaluated using immune-deficient mice bearing human KRAS^G12C NSCLC NCI-H2122 xenograft tumors.
# [2] = test system: multiple human cancer cell lines; experiment: Growth suppression and apoptosis in cancer cell lines in vitro; type: cell-based
# Text: As described herein, Compound A is a potent, orally (PO) bioavailable RAS(ON) multi-selective inhibitor, selective for the active guanosine-5′-triphosphate (GTP)-bound state (RAS(ON)) of both mutant and wild-type variants of the canonical RAS isoforms (KRAS, NRAS, and HRAS) over other members of the RAS superfamily and other cellular targets. […] Binding of Compound A to CypA results in an inhibitory complex that binds RAS(ON), forming a high-affinity tri-complex that suppresses RAS signaling by disrupting interactions with effectors.
# KRAS^G12X PDAC = experiment: Phase 1/1b study: tumor response per RECIST v1.1 in PDAC; type: in vivo, human
# Method: FIG. 5 is a waterfall plot showing the best response in KRAS^G12X PDAC.
# (§1) Subjects are assessed for response using Response Evaluation Criteria in Solid Tumors (version 1.1) (RECIST [v1.1]). All subjects with previous or current, known or suspected brain metastases must have a magnetic resonance imaging (MRI) of the brain (unless contraindicated) performed within 28 days prior to the first dose of Compound A (C1D1). Disease response for clinical management of subjects is assessed per RECIST (v1.1).
# KRAS^G12X VAF in ctDNA = experiment: KRAS variant allele frequency in ctDNA (Guardant Health ctDNA test); type: in vivo, human
# Text: Lines inside box plots indicate median values; whiskers indicate largest or smallest value (at most±1.5× the interquartile range). Circles indicate data points >1.5 times the interquartile range; KRAS^G12X VAF at Cycle 1 Day 1 (pre-treatment) to Cycle 2 Day 1 or Cycle 3 Day 1 (on-treatment) determined by Guardant Health ctDNA test. ctDNA, circulating tumor DNA; VAF, variant allele frequency.
# Whole-blood samples are collected from all subjects to measure Compound A concentrations, circulating tumor deoxyribonucleic acid (ctDNA) and other biomarkers. Samples for pharmacodynamic assays collected in Cycle 1 and beyond. Paired pretreatment and on treatment fresh tumor samples can optionally be collected from any subject if consent is obtained and at the discretion of the treating physician. Optional collection of pre-study treatment fresh biopsy should be performed prior to C1D1 dosing. An optional on-study treatment biopsy can be obtained with subject consent and at the discretion of the treating physician. The primary purpose of the optional on-study treatment biopsies is to assess pharmacodynamic markers and previously acquired pre-study treatment markers of resistance. […]
# Patients with NSCLC and PDAC evaluated for molecular responses were dosed at 20-300 mg QD. […]
# KRAS^G12X NSCLC = experiment: Phase 1/1b study: tumor response per RECIST v1.1 in NSCLC; type: in vivo, human
# Method: FIG. 4 is a waterfall plot showing the best response in KRAS^G12X NSCLC.
# as §1
# KRAS^G12V ovarian cancer = experiment: Phase 1/1b study: tumor response in ovarian cancer case; type: in vivo, human; conditions: one patient; 10 mg QD, escalated to 40 mg QD at C7 and 80 mg QD at C10; at cycle 13
# Method: as §1
# person diagnosed with stage III ovarian cancer in 2004 and later with metastatic disease to the liver and peritoneum. The patient had received 2 prior therapies; Surgery; and carboplatin/paclitaxel. […] The patient was dose escalated to 40 mg QD at C7 and then to 80 mg QD at C10.
# [3] = Phase 1/1b study of Compound A: safety, treatment-related adverse events; type: in vivo, human; conditions: 10 to 400 mg QD
# Method: This Example describes the study design of a Phase 1/1b study of Compound A in patients with advanced solid tumors harboring specific mutations in RAS with the first patient dosed in June 2022. There are 2 parts planned in this study: Part 1: Dose Escalation and Part 2: Dose Expansion. In the Dose Escalation Phase, safety/tolerability and pharmacokinetics (PK) are assessed, and one or more candidate recommended phase 2 dose and schedule (RP2DS) for further testing in the second part of the study is determined. Enrollment in the Dose Expansion Phase begins after determination of a candidate RP2DS. Part 2 of the study further evaluates the safety/tolerability, PK, and preliminary antitumor effects within specific histotypes. Dose Expansion/Dose Optimization cohorts include RAS-mutant advanced solid tumors with specific histotypes/genotypes (including, but not limited to, NSCLC, PDAC, CRC, melanoma, gynecological cancers, other solid tumors.
# Safety assessments and procedures were performed. Real-time safety monitoring was performed to ensure that the protocol-specified dose modification guidelines are followed. In addition, C1 safety and available PK and pharmacodynamic data was reviewed and evaluated at each Compound A dose level/schedule to determine whether enrollment into the next higher dose-level cohort may proceed. A modified schedule can be evaluated in which Compound A may be administered more or less frequently than once daily (QD). The totality of the data from dose escalation cohorts was reviewed and one or more candidate RP2DS for expansion in Part 2 recommended.
# Compound A was administered PO QD at the following dose levels until disease progression or unacceptable toxicity: 10, 20, 40, 80, 120, 160, 220, 300, 400, and 500 mg. Progression to the next Cohort and dose level may stop if DLT is observed at a lower dose level. Other dose levels not specified but within the range listed above may also be permitted based on emergent safety and PK data.
# As of Sep. 11, 2023, 131 patients received Compound A at dose levels from 10 to 400 mg QD. The majority of patients had pancreatic cancer, non-small cell lung cancer, or colorectal cancer. The most common (≥10% of patients) treatment-related adverse events (TRAEs) were rash and gastrointestinal (GI)-related toxicities that were all Grade 1 or 2 in severity. Most rashes were acneiform or maculopapular, consistent with known on-target rash presentation from other RAS pathway inhibitors. […] The most common GI-related toxicities were nausea, diarrhea, and vomiting that were manageable with standard supportive care. The median duration of treatment at the time of the data extraction was 2.27 months.
# [4] = KRAS G12X PDAC, 80 mg QD to 400 mg QD, RECIST v1.1, FIG. 5
# [5] = one patient, 80 mg QD, at cycle 5
# [6] = KRAS G12X NSCLC, 80 mg QD to 400 mg QD, RECIST v1.1, FIG. 4
# [7] = Total (N = 131), as of Sep. 11, 2023
structure (smiles),measurement,setting,value
CCn1c(-c2cc(N3CCN(C)CC3)cnc2[C@H](C)OC)c2c3cc(ccc31)-c1csc(n1)C[C@H](NC(=O)[C@H]1C[C@@H]1C)C(=O)N1CCC[C@H](N1)C(=O)OCC(C)(C)C2 [Compound A],Mean tumor regression,[1],mean tumor regressions were not achieved
same,Effect on cancer cell lines in vitro,[2],growth suppression and apoptosis
same,Disease control rate,KRAS^G12X PDAC; [4],87%
same,Overall response rate,KRAS^G12X PDAC; [4],20%
same,"Response, case report KRAS^G12D PDAC",KRAS^G12X PDAC; [5],confirmed partial response
same,"Response, case report KRAS^G12R PDAC","KRAS^G12X PDAC; one patient, 160 mg QD, at week 6",confirmed partial response
same,Reduction in KRAS^G12V VAF,"KRAS^G12X VAF in ctDNA; one patient with KRAS^G12V ovarian cancer, 10 mg QD, at C2D1",60%
same,Molecular response in ctDNA,"KRAS^G12X VAF in ctDNA; patients with NSCLC and PDAC dosed at 20-300 mg QD, FIG. 6",reduction in ctDNA of the KRAS-mutated allele
same,Disease control rate,KRAS^G12X NSCLC; [6],85%
same,Overall response rate,KRAS^G12X NSCLC; [6],38%
same,"Response, case report KRAS^G12D NSCLC",KRAS^G12X NSCLC; [5],confirmed partial response
same,"Response, case report KRAS^G12V NSCLC","KRAS^G12X NSCLC; one patient, 300 mg QD reduced to 200 mg QD due to fatigue, at week 6",confirmed complete response
same,"Clinical symptoms, case report KRAS^G12V NSCLC","KRAS^G12X NSCLC; one patient, 300 mg QD, within one week of start of treatment",clinical improvement in cough and dyspnea
same,"Response, case report KRAS^G12V ovarian cancer",KRAS^G12V ovarian cancer,confirmed partial response
same,Dose dependence of rash,[3]; 131 patients,"Rash frequency, but not severity, was dose-dependent"
same,Fatal TRAEs,[3]; 131 patients,No fatal TRAEs
same,Severity of the most common (≥10% of patients) TRAEs (rash and GI-related toxicities),[3]; 131 patients,Grade 1 or 2
same,"ALT elevation TRAE, Any Grade",[3]; [7],8 (6) n(%)
same,"ALT elevation TRAE, maximum severity Grade 1",[3]; [7],6 (5) n(%)
same,"ALT elevation TRAE, maximum severity Grade 2",[3]; [7],1 (1) n(%)
same,"ALT elevation TRAE, maximum severity Grade 4",[3]; [7],0 n(%)
same,"AST elevation TRAE, Any Grade",[3]; [7],7 (5) n(%)
same,"AST elevation TRAE, maximum severity Grade 1",[3]; [7],6 (5) n(%)
same,"AST elevation TRAE, maximum severity Grade 2",[3]; [7],0 n(%)
same,"AST elevation TRAE, maximum severity Grade 4",[3]; [7],0 n(%)
same,"Diarrhea TRAE, Any Grade",[3]; [7],42 (32) n (%)
same,"Diarrhea TRAE, maximum severity Grade 1",[3]; [7],32 (24) n (%)
same,"Diarrhea TRAE, maximum severity Grade 2",[3]; [7],9 (7) n (%)
same,"Diarrhea TRAE, maximum severity Grade 3",[3]; [7],1 (1) n (%)
same,"Diarrhea TRAE, maximum severity Grade 4",[3]; [7],0 n (%)
same,"Electrocardiogram QT prolonged TRAE, Any Grade",[3]; [7],1 (1) n(%)
same,"Electrocardiogram QT prolonged TRAE, maximum severity Grade 1",[3]; [7],1 (1) n(%)
same,"Electrocardiogram QT prolonged TRAE, maximum severity Grade 2",[3]; [7],0 n(%)
same,"Electrocardiogram QT prolonged TRAE, maximum severity Grade 3",[3]; [7],0 n(%)
same,"Electrocardiogram QT prolonged TRAE, maximum severity Grade 4",[3]; [7],0 n(%)
same,"Fatigue TRAE, Any Grade",[3]; [7],16 (12) n (%)
same,"Fatigue TRAE, maximum severity Grade 1",[3]; [7],12 (9) n (%)
same,"Fatigue TRAE, maximum severity Grade 2",[3]; [7],4 (3) n (%)
same,"Fatigue TRAE, maximum severity Grade 3",[3]; [7],0 n (%)
same,"Fatigue TRAE, maximum severity Grade 4",[3]; [7],0 n (%)

# Source: patent US20250345328A1, “METHODS OF TREATING A RAS RELATED DISEASE OR DISORDER” (Revolution Medicines, Inc., priority 2023, published 2025)
